Experimental data published in paper PMC12040169 (PLOS Biology, 2025).

test: in vitro; conditions: human, hela cells, % viability

| Compound | viability at 28.5 h, 10 µM [%] |
| --- | --- |
| CCOc1ccccc1NC(=O)CCCN1C(=O)c2ccccc2C1=O [CBK265608] | 107 |
| COc1ccc(-c2nnc(SCC(=O)Nc3ccccc3[N+](=O)[O-])n2C)cc1 [CBK265609] | 103 |
| Cc1ccc(-c2csc3nc(SCC(=O)NCC4CCCO4)n(-c4ccccc4)c(=O)c23)cc1 (centres unmarked) [CBK265610] | 82.6 |
| O=C(O)C1CC=C(Cl)CC1C(=O)Nc1ccc(Cl)cc1[N+](=O)[O-] (centres unmarked) [CBK265612] | 101 |
| O=C(/C=C/c1ccco1)Nc1sc2c(c1C(=O)NCc1ccco1)CCC2 [CBK265616] | 104 |
| O=C(Oc1ccc(N(C(=O)c2ccncc2)S(=O)(=O)c2cccs2)cc1)c1ccncc1 [CBK265619] | 98.7 |
| Cc1cccc(C)c1NC(=O)CSc1nnc(-c2cccnc2)n1Cc1ccccc1 [CBK265620] | 114 |
| O=C(CSCCO)Nc1cccc2ccccc12 [CBK265623] | 85.4 |
| CCOC(=O)C1=C(C)NC(=S)NC1c1ccc(O)c(OCC)c1[N+](=O)[O-] (centres unmarked) [CBK265624] | 102 |
| COc1cccc(/C=C2/NC(=O)N(c3cccc(Cl)c3)C2=O)c1OCc1cccc(C(=O)O)c1 [CBK265626] | 109 |
| C=CCn1c2ccccc2c2nnc(SCc3ccc([N+](=O)[O-])cc3)nc21 [CBK265630] | 92.5 |
| COc1cc2c(cc1/C=C1/S/C(=N\c3ccccc3)N(CCCN3CCOCC3)C1=O)OCO2 [CBK265631] | 78.7 |
| CCOC(=O)COc1ccc(/C=C2/SC(=S)N(c3cccc(C(=O)O)c3)C2=O)cc1 [CBK265632] | 107 |
| NC(=O)c1ccccc1NC(=S)NC(=O)c1cc2ccccc2o1 [CBK265633] | 81.3 |
| COc1ccc(-c2cc(=O)oc3cc(OCC(=O)c4cc5ccccc5o4)ccc23)cc1 [CBK265634] | 97.7 |
| Cc1ccc(S(=O)(=O)N(C(=O)c2ccncc2)c2ccc(OC(=O)c3ccncc3)cc2)c(C)c1 [CBK265635] | 104 |
| Cc1ccc(S(=O)(=O)c2cc3c(=O)n4ccccc4nc3n(CCN3CCOCC3)c2=N)cc1 [CBK265637] | 80.3 |
| Cc1cc(Cl)ccc1NC(=O)COC(=O)c1ccccc1I [CBK265638] | 89.6 |
| O=C(COc1ccc2c3c(c(=O)oc2c1)CCC3)Nc1ccc(S(=O)(=O)N2CCOCC2)cc1 [CBK265640] | 82.4 |
| Cc1ccc(S(=O)(=O)N(C)c2c(C)ccc(S(=O)(=O)N3CCN(C)CC3)c2C)cc1 [CBK265642] | 96.1 |
| COc1ccc(C(=O)NCC(O)CN2CCOCC2)cc1[N+](=O)[O-] (centres unmarked) [CBK265643] | 105 |

| Compound | viability at 28.5 h, 10 µM [%] |
| --- | --- |
| COc1cc(C2C3=C(CC(C)(C)CC3=O)Nc3ncnn32)cc(OC)c1OC (centres unmarked) [CBK265646] | 86.2 |
| CCOc1ccc(-c2nn(-c3ccccc3)cc2/C=C2\SC(=S)N(CC(=O)O)C2=O)cc1F [CBK265647] | 105 |
| N=C1NC(=O)C(CC(=O)Nc2ccc(SC(F)F)cc2)S1 (centres unmarked) [CBK265648] | 91.1 |
| Cc1ccc(/C=C(\NC(=O)c2ccccc2)C(=O)N2CCCC2C(=O)O)cc1 (centres unmarked) [CBK265649] | 87.6 |
| O=C(OCC=C=CSc1ccc([N+](=O)[O-])cc1)c1ccc(F)cc1 [CBK265650] | 117 |
| CCn1c(COc2cccc3cccnc23)nnc1SCC(=O)c1ccc(F)cc1 [CBK265656] | 86.8 |
| O=C(O)CCCn1c(-c2cccc([N+](=O)[O-])c2)nc(=S)c2c1CCCC2 [CBK265657] | 101 |
| NS(=O)(=O)c1ccc(NC(=O)CSc2ccc3ccccc3n2)cc1 [CBK265663] | 74.6 |
| CCOC(=O)c1c(NC(=O)CSc2nnc3ccccn23)sc2c1CCC(C)C2 (centres unmarked) [CBK265668] | 89 |
| Cc1ccc(C(=O)N/C(=C\c2ccc3c(c2)OCO3)C(=O)NCC(=O)O)cc1 [CBK265669] | 109 |
| O=C(CN1C(=O)c2ccccc2C1=O)Nc1sc2c(c1C(=O)NCc1ccco1)CCCC2 [CBK265670] | 87.9 |
| CC(CC(=O)O)CC(=O)Nc1ccccc1C(=O)O (centres unmarked) [CBK265671] | 99.2 |
| O=C(CSc1nnc2scc(-c3ccccc3)n12)Nc1nsc(-c2ccccc2)n1 [CBK265672] | 103 |
| Cc1cc2ccccc2n2c(SCC(=O)Nc3nsc(-c4ccccc4)n3)nnc12 [CBK265673] | 116 |
| Cc1nc([N+](=O)[O-])c(N2CCN(Cc3ccccc3)CC2)n1Cc1ccccc1 [CBK265675] | 88.7 |
| Cc1ccc(-n2ncc3c(NCCc4ccc(S(N)(=O)=O)cc4)ncnc32)c(C)c1 [CBK265676] | 92.4 |
| O=C(OCC#CCSc1nnc(-c2ccncc2)o1)c1sc2ccccc2c1Cl [CBK265677] | 94.6 |
| Cc1ccc2[nH]c(SCC(=O)Nc3cccc(NC(=O)C45CC6CC(CC(C6)C4)C5)c3)nc2c1 [CBK265679] | 96.3 |
| O=C(CCc1ccccc1)Nc1cccc2nsnc12 [CBK265680] | 85.3 |
| Cc1cc2ccccc2n2c(SCC(=O)NCCc3ccccc3)nnc12 [CBK265682] | 111 |
| NS(=O)(=O)c1ccc(CCNC(=O)/C=C/c2ccc([N+](=O)[O-])cc2)cc1 [CBK265683] | 110 |

| Compound | viability at 28.5 h, 10 µM [%] |
| --- | --- |
| O=C(CSCc1nc(O)c2c3c(sc2n1)CCCC3)NC1CCCCC1 [CBK265684] | 83.5 |
| CCc1nnc(SCc2ccc(CSc3nnc(CC)n3N)cc2)n1N [CBK265689] | 106 |
| COc1cc(/C=C2/NC(=O)N(c3cccc(Cl)c3)C2=O)ccc1OCC(=O)Nc1ccc(F)cc1 [CBK265691] | 93 |
| COC(=O)c1ccc(NC(=O)C2Cc3ccccc3CN2S(=O)(=O)c2cccs2)cc1 (centres unmarked) [CBK265693] | 92.7 |
| NS(=O)(=O)c1ccc(CCNC(=O)COc2ccc(Cl)cc2Cl)cc1 [CBK265694] | 90.2 |
| COc1cc(/C=C/C(=O)O)ccc1OCC(=O)Nc1ccccc1 [CBK265695] | 101 |
| CCN(C#N)c1nc(NC)nc(OC)n1 [CBK265697] | 98.1 |
| COc1ccc(NC(=O)C(C)Sc2nc(N)cc(O)n2)cc1 (centres unmarked) [CBK265699] | 106 |
| O=C(O)/C(=C\c1ccc(Cl)cc1)NC(=O)c1ccccc1I [CBK265701] | 90.1 |
| COc1ccccc1CNC(=O)c1cccc(C)c1[N+](=O)[O-] [CBK265703] | 87.8 |
| O=C(c1ccncc1)N(c1ccc2oc3c(c2c1)CCCC3)S(=O)(=O)c1cccc([N+](=O)[O-])c1 [CBK265705] | 106 |
| Cc1nc(CSc2nc3sc4c(c3c(=O)n2-c2ccccc2)CCCCC4)cs1 [CBK265706] | 110 |
| CC(C)C(C(=O)Nc1ccc(S(=O)(=O)Nc2nccs2)cc1)N1C(=O)c2ccccc2C1=O (centres unmarked) [CBK265707] | 107 |
| NS(=O)(=O)c1ccc(CCNC(=O)/C=C/c2ccccc2[N+](=O)[O-])cc1 [CBK265709] | 101 |
| Cc1cccc(-n2ncc3c(NCCCN4CCOCC4)ncnc32)c1 [CBK265710] | 91.2 |
| CS(=O)(=O)CCC(C(=O)O)N1C(=O)c2ccc(C(=O)O)cc2C1=O (centres unmarked) [CBK265719] | 94.5 |
| O=C(O)c1ccc(NC(=O)c2cc(S(=O)(=O)N3CCCCC3)cs2)cc1 [CBK265722] | 101 |
| CN(C)S(=O)(=O)c1ccc(Cl)c(C(=O)Nc2cccc(O)c2)c1 [CBK265723] | 113 |
| CN(CC(=O)O)C(=O)c1ccc(S(=O)(=O)N2CCCC2)cc1 [CBK265724] | 91.8 |
| CN(C)S(=O)(=O)c1ccc(Cl)c(C(=O)Nc2cccc(C(=O)O)c2)c1 [CBK265727] | 90.9 |
| CN(c1ccc(C(=O)Nc2cccc(C(=O)O)c2)cc1)S(=O)(=O)c1ccccc1 [CBK265729] | 95.7 |

| Compound | viability at 28.5 h, 10 µM [%] |
| --- | --- |
| CCOc1cc(CNC2C3CC4CC(C3)CC2C4)cc(Cl)c1OCC(N)=O (centres unmarked) [CBK265734C] | 103 |
| Cc1cccc(NC(=O)CSc2ncnc3sc4c(c23)CCC(C)C4)c1 (centres unmarked) [CBK265738] | 102 |
| O=C(O)c1cccc(NC(=S)NC(=O)c2cccnc2)c1 [CBK265739] | 94.5 |
| CCCCc1ccc(NC(=S)NN2CCN(C)CC2)cc1 [CBK265741] | 97.1 |
| COC(=O)c1c(NC(=O)C(Cc2ccccc2)N2C(=O)c3ccccc3C2=O)sc2c1CCC2 (centres unmarked) [CBK265744] | 96.1 |
| CN1CCN(C(=O)CN(Cc2ccccc2)S(C)(=O)=O)CC1 [CBK265745] | 97.6 |
| CCN(CC)CCCNc1oc(-c2ccc(Cl)cc2)nc1C#N [CBK265746] | 126 |
| O=C(O)CCCn1c(=O)c2cc3c(=O)n(CCCC(=O)O)c(=O)c3cc2c1=O [CBK265748] | 93.1 |
| O=C(COc1ccc2ccccc2c1)Nc1ccc(CN2CCOCC2)cc1 [CBK265754] | 121 |
| Cc1nn(Cc2cccc(C(=O)NCc3ccccn3)c2)c(C)c1Cl [CBK265755] | 97.7 |
| Cc1c(CN(C)C(=O)c2ccc(COc3ccc(Cl)cc3)cc2)cnn1C [CBK265756] | 98.9 |
| Cc1ccccc1CN(CC(=O)NC1CC1)S(=O)(=O)c1ccc(Cl)cc1 [CBK265757] | 98.3 |
| C/C(=C(/C(=O)N(N)c1nc2ccccc2s1)C(=O)C(F)(F)F)N1CCC(C(N)=O)CC1 [CBK265758] | 87.7 |
| Cc1ccc(N(Cc2ccccc2OC(=O)c2cccnc2)C2=NS(=O)(=O)c3ccccc32)cc1 [CBK265760] | 88.4 |
| O=c1c2ccccc2c(-c2ccc(Cl)cc2)nn1-c1cc(N2CCNCC2)ccc1[N+](=O)[O-] [CBK265763] | 98.7 |
| O=C(Nc1ccc(S(=O)(=O)Nc2ccc(Cl)cc2)cc1)c1ccc(Cn2cc(Br)cn2)o1 [CBK265764] | 108 |
| CN1CCN(C(=O)CNS(=O)(=O)c2ccccc2)CC1 [CBK265767] | 92.6 |
| COc1ccc(-c2nc(C#N)c(NCCN3CCOCC3)o2)cc1 [CBK265769] | 108 |
| O=C(O)CCC(=O)Nc1ccccc1NC(=O)c1ccc(C(F)(F)F)cc1 [CBK265770] | 102 |
| CN1CCN(CC(=O)Nc2ccc([N+](=O)[O-])cc2C(=O)c2ccccc2)CC1 [CBK265772] | 104 |
